Like-named read-outs stand apart in the source and are kept apart here.
Assays:
[1] = molecular target: human EGFR L858R (NIH/3T3 cells) (Homo sapiens, UniProt P00533, L858R); experiment: EGFR target modulation in engineered NIH/3T3 cell lines (phospho-EGFR Y1068 AlphaLISA), EGFR L858R; format: cell-based; settings: engineered NIH/3T3 cells, read-out: NIH3T3 IC50 (μM) EGFR (L858R)
Protocol: (§1) EGFR Target Modulation in Engineered NIH/3T3 Cell Lines Tissue Culture.
(§2) The cells were harvested with 0.05% Trypsin/EDTA (Hyclone #SH30236.01), re-suspended in 5% FBS/DMEM Pen/Strep without Puromycin and plated at 9,000 cells per well in 50 μl of media in a 384-well black plate with clear bottoms (Greiner #789068G). The cells were allowed to incubate overnight in a 37° C., 5% CO2 humidified tissue culture incubator. A 12-point test compound curve was prepared by serial diluting a 10 μM stock 1:3 in DMSO in a 384-well compound plate (Greiner #789201L). The serial diluted compounds were transferred to the plate containing cells by using a 50 nl Pin Head device (Perkin Elmer) and the cells were placed back in the incubator for 3 hours. Only the EGFR WT-expressing cells were induced with 50 ng/ml EGF (Preprotech #AF-100-15) for 5 minutes before lysis. […] The plates were shaken at 4° C. for 5 minutes with foil top at maximum speed. […] The plates were sealed with a foil top and frozen at −80° C. and thawed when needed.
(§3) The frozen aliquots were thawed and briefly centrifuged. All antibodies and beads were diluted in 1× AlphaLISA HiBlock Buffer (PE #AL004C). […] Goat anti-total EGFR (R&D Systems #AF231) was added and allowed to equilibrate for 1 hour at room temperature at 1 nM final concentration.
(§4) With these parameters, the IC50's for each compound in each cell line was calculated using non-linear curve fitting analysis.

[2] = molecular target: human EGFR L858R/T790M (NIH/3T3 cells) (Homo sapiens, UniProt P00533, L858R/T790M); experiment: EGFR target modulation in engineered NIH/3T3 cell lines (phospho-EGFR Y1068 AlphaLISA), EGFR L858R/T790M; format: cell-based; settings: engineered NIH/3T3 cells, read-out: NIH3T3 IC50 (μM) EGFR (L858R/T790M)
Sequence of human EGFR L858R/T790M (NIH/3T3 cells) (P00533 25-1210 T790M/L858R): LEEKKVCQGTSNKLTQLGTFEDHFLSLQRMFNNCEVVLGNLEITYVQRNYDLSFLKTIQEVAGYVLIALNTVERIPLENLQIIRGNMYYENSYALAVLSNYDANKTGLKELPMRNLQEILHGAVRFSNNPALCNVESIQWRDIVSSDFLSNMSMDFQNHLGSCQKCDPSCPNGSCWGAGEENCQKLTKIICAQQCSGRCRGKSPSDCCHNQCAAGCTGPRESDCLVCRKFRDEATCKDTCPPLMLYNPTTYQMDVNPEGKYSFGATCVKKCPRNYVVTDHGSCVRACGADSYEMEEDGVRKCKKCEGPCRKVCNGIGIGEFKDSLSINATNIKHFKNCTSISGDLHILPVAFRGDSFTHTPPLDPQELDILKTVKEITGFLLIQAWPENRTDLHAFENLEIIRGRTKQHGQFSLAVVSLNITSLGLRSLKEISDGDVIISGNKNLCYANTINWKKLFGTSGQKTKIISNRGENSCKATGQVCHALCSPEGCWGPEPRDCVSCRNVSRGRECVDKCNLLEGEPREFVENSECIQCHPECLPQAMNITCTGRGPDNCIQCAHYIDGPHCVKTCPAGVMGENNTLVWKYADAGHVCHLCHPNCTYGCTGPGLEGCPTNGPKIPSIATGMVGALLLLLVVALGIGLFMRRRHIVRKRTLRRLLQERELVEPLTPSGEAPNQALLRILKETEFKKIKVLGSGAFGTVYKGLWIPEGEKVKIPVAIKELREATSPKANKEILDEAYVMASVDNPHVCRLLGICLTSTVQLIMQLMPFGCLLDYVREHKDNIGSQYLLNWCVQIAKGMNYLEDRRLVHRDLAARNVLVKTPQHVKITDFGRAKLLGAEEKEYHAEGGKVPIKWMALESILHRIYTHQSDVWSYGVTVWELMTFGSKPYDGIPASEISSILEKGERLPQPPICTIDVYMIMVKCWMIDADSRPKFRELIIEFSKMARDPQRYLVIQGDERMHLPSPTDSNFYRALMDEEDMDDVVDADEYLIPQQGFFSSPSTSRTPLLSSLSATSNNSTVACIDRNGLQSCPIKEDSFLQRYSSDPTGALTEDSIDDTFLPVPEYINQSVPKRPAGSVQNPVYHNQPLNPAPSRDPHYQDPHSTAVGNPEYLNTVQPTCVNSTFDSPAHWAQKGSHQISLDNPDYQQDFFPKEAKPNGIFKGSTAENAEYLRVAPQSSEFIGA
Protocol: as §1, §2, §3, §4

[3] = molecular target: human EGFR WT (NIH/3T3 cells, EGF-induced) (Homo sapiens, UniProt P00533); experiment: EGFR target modulation in engineered NIH/3T3 cell lines (phospho-EGFR Y1068 AlphaLISA), EGFR WT; format: cell-based; settings: engineered NIH/3T3 cells, read-out: NIH3T3 IC50 (μM) EGFR (WT)
Sequence of human EGFR WT (NIH/3T3 cells, EGF-induced) (P00533 25-1210): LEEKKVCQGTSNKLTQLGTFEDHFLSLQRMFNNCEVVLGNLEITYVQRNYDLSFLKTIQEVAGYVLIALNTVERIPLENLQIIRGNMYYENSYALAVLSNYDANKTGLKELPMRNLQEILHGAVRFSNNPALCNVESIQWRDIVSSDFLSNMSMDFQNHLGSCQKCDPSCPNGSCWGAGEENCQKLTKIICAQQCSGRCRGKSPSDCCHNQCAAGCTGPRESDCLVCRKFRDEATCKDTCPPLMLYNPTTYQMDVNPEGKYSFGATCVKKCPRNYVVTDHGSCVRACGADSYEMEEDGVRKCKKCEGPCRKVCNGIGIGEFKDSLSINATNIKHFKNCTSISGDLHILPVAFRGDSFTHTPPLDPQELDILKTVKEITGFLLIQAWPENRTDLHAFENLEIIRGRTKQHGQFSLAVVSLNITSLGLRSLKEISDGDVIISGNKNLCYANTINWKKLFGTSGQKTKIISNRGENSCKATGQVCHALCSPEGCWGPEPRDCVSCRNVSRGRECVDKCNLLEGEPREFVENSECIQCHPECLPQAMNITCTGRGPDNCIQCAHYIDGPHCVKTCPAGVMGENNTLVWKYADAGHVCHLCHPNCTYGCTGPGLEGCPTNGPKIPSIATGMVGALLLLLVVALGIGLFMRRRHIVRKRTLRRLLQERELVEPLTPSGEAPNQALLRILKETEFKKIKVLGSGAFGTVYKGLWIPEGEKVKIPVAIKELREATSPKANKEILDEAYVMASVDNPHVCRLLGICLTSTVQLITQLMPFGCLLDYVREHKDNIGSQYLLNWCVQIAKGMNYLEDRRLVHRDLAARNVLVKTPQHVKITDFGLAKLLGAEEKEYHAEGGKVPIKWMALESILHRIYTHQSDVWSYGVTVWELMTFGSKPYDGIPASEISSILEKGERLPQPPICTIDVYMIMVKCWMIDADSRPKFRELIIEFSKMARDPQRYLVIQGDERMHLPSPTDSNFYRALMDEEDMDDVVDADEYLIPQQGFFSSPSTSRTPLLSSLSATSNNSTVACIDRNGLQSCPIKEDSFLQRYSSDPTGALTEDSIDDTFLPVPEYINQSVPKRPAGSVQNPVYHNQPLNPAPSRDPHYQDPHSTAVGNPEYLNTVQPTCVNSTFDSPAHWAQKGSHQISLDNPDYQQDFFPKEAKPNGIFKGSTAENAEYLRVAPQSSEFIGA
Protocol: as §1, §2, §3, §4

[4] = molecular target: T1, EGFR(L858R/T790M) (Homo sapiens, UniProt P00533, L858R/T790M); experiment: EGFR biochemical assay (HTRF), IC50 determinations
T1 construct: purchased from Carna (GST-a.a. 669-1210)
T1 sequence (P00533 669-1210 T790M/L858R): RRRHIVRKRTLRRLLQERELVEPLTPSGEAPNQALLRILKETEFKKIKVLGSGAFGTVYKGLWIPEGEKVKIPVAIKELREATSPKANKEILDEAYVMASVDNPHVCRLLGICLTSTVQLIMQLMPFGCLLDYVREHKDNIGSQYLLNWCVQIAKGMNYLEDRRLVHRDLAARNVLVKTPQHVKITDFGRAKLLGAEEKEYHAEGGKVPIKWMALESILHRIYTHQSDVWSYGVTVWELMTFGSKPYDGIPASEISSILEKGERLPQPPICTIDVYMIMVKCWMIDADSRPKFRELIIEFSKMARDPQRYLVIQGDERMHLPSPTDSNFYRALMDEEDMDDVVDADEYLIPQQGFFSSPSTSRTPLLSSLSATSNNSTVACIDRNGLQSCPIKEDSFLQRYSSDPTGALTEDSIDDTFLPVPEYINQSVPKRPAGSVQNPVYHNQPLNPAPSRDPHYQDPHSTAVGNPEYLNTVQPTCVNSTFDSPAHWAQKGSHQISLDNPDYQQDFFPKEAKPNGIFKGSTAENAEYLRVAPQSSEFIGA
Protocol: All EGFR biochemical assays were carried out by HTRF method. […] The substrate peptide Biotin-TK-peptide was purchased from Cis-Bio. […] All reactions were carried out at room temperature in white ProxiPlate™ 384-well Plus plates (PerkinElmer) and were quenched with 5 μL of 0.2 M EDTA at 60 min. Five L of the detection reagents (2.5 ng PT66K and 0.05 μg SAXL per well) were added, the plates were incubated at room temperature for 1 h and then read in EnVision reader. […] For no-preincubation condition, the compounds were added to the assay solution containing ATP and peptide, and the reaction was initiated by addition of enzyme. For pre-incubation conditions, the compounds were added to the assay solution containing enzyme and peptide, and pre-incubated at room temperature for desired period of time, then the reaction was initiated by addition of ATP.

[5] = EGFR (L858R/T790M) with 90 min pre-incubation, read-out: IC50 (μM) Column B
[6] = EGFR (L858R/T790M) with no pre-incubation, read-out: IC50 (μM) Column A

Sequence of human EGFR L858R (NIH/3T3 cells) (P00533 25-1210 L858R): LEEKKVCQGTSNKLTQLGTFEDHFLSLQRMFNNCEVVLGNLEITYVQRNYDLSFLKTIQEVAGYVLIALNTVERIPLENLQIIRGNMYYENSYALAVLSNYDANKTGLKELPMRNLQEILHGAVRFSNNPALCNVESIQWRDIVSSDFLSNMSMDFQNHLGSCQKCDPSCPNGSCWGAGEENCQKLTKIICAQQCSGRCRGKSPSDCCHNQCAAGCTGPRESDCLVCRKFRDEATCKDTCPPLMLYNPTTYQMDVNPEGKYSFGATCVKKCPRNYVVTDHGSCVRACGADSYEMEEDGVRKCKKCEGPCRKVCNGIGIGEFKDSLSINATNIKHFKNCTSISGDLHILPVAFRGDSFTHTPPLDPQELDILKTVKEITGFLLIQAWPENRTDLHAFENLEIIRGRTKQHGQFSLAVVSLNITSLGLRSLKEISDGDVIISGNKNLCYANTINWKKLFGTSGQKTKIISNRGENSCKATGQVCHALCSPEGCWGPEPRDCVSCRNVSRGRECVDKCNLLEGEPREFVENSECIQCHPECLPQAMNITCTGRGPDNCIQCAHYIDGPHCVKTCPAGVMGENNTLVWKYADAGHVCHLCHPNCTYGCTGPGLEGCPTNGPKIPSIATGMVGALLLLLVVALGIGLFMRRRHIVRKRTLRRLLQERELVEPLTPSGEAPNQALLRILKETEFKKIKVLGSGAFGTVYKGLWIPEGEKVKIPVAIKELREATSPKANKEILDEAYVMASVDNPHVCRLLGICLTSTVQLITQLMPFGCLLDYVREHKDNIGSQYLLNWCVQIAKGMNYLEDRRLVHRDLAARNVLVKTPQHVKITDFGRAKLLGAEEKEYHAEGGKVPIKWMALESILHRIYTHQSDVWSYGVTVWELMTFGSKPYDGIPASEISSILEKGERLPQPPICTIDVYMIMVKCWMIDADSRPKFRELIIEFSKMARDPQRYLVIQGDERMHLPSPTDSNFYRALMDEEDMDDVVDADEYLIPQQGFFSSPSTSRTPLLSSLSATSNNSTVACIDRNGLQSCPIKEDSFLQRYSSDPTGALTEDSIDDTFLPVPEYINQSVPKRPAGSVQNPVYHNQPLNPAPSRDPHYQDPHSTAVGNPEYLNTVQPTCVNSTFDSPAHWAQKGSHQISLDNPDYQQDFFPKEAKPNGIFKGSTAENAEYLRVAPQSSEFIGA

Row | Compound | IC50 [1] [µM] | IC50 [2] [µM] | IC50 [3] [µM] | IC50 [4, 5] [µM] | IC50 [4, 6] [µM]
1 | C=CC(=O)N1CCOCC(n2c(NC(=O)c3cccc(C(F)(F)F)c3)nc3cccc(C)c32)C1 (single isomer, unassigned) [Example 21-7A] | 3.2 | 0.49 | > 10 | 0.56 | 2.01
2 | C=CC(=O)N1CCOCC(n2c(NC(=O)c3cccc(C(F)(F)F)c3)nc3cccc(C)c32)C1 (single isomer, unassigned) [Example 21-7B] | 0.012 | 0.002 | 0.65 | < 0.001 | 0.008
3 | C=CC(=O)N1CCCCC(n2c(NC(=O)c3ccccc3)nc3cccc(C(=O)NCC(=O)O)c32)C1 (centres unmarked) [Example 17-137] | > 10 | 7.9 | > 10 | 0.044 | 1.55
4 | C=CC(=O)N1CCCCC(n2c(NC(=O)c3cccc(C(F)(F)F)c3)nc3cccc(CN4CCCC4)c32)C1 (centres unmarked) [Example 11, N-(1-(1-acryloyazepan-3-yl)-7-(pyrrolidin-1-ylmethyl)-1H-benzo[d]imidazol-2-yl)-3-(trifluoromethyl)benzamide] | 0.002 | 0.002 | 0.12 | < 0.001 | 0.012
5 | C=CC(=O)N1CCCC(n2c(NC(=O)c3cccc(C(F)(F)F)c3)nc3c2CN(C(=O)OC)CC3)C1 (centres unmarked) [Example 17-170] | 0.39 | 0.01 | > 10 | 0.006 | 0.66
6 | CC#CC(=O)N1CCCCC(n2c(NC(=O)c3cccc(C(F)(F)F)c3)nc3cccc(C)c32)C1 (centres unmarked) [Example 17-19] | 0.33 | 0.044 | > 10 | 0.007 | 0.33
7 | C=CC(=O)N1CCCC[C@@H](n2c(NC(=O)c3ccccc3)nc3cccc(COCCOC)c32)C1 [Example 17-130] | 0.094 | 0.016 | 1.41 | 0.006 | 0.119
8 | C=CC(=O)N1CCCC(n2c(NC(=O)c3cccc(C(F)(F)F)c3)nc3c2CN(S(C)(=O)=O)CC3)C1 (centres unmarked) [Example 17-171] | 1.86 | 0.16 | 9.9 | 0.316 | 2.4
9 | CN(C)C/C=C/C(=O)N1CCC[C@@H](n2c(NC(=O)c3cccc(C(F)(F)F)c3)nc3cc(CO)ccc32)C1 [Example 17-143] | 0.313 | 0.046 | > 10 | 0.014 | 0.233
10 | C=CC(=O)N1CCC[C@@H](n2c(NC(=O)c3cccc(C(F)(F)F)c3)nc3cc(CO)ccc32)C1 [Example 17-121] | 0.259 | 0.016 | > 10 | < 0.001 | 0.127
11 | C=CC(=O)N1CCCC(n2c(NC(=O)c3cccc(C(F)(F)F)c3)nc3c2CCN(C(=O)OC)C3)C1 (centres unmarked) [Example 17-167] | 4.8 | 0.14 | > 10 | 0.128 | 2.62
12 | C=CC(=O)N1CCOCC(n2c(NC(=O)c3cccc(C(F)(F)F)c3)nc3cccc(C)c32)C1 (centres unmarked) [Example 17-14] | 0.016 | 0.003 | 1.08 | 0.005 | 0.033
13 | CC1=C(C(=O)N2CCCC[C@@H](n3c(NC(=O)c4ccnnc4)nc4cccc(C)c43)C2)S(=O)(=O)CCO1 [Example 17-88] | 0.158 | 0.209 | 8.4 | 0.04 | 0.39
14 | COC1CN(C/C=C/C(=O)N2CCCC[C@@H](n3c(NC(=O)c4ccnc(C)c4)nc4cccc(Cl)c43)C2)C1 [Example 3-14] | 0.011 | 0.012 | 0.78 | < 0.001 | 0.012
15 | C=CC(=O)N1CCCCC(n2c(NC(=O)c3ccccc3)nc3cccc(C(=O)N4C[C@@H](O)[C@H](O)C4)c32)C1 (some centres unmarked) [Example 17-140] | 1.64 | 0.181 | 7.9 | 0.043 | 0.94
16 | C=CC(=O)N1CCCC(n2c(NC(=O)c3cccc(C(F)(F)F)c3)nc3c2CCN(C(C)=O)C3)C1 (centres unmarked) [Example 17-169] | 1.75 | 0.14 | 8.2 | 0.186 | 1.75
17 | Cc1cccc2nc(NC(=O)c3cccc(C(F)(F)F)c3)n([C@@H]3COCCN(C(=O)/C=C/CN(C)C)C3)c12 [Example 17-7] | 0.015 | 0.003 | 0.55 | < 0.001 | 0.005
18 | C=C(CN1CCOCC1)C(=O)N1CCCC[C@@H](n2c(NC(=O)c3ccnnc3)nc3cccc(C)c32)C1 [Example 17-93] | 0.281 | 0.35 | 4.2 | 0.059 | 0.39

Second part, the compound after the results:

Row | IC50 [1] [µM] | IC50 [2] [µM] | IC50 [3] [µM] | IC50 [4, 5] [µM] | IC50 [4, 6] [µM] | Compound
19 | 0.017 | 0.008 | 0.263 | 0.002 | 0.02 | Cc1cccc2nc(NC(=O)c3ccco3)n(C3CCCCN(C(=O)/C=C/CN(C)C)C3)c12 (centres unmarked) [Example 17-56]
20 | 0.002 | 0.002 | 0.012 | < 0.001 | 0.004 | CCOc1cc(C(=O)Nc2nc3cccc(C)c3n2C2CCCCN(C(=O)/C=C/CN(C)C)C2)ccn1 (centres unmarked) [Example 17-65]
21 | 0.002 | 0.005 | 0.021 | 0.001 | 0.02 | Cc1ncc(C(=O)Nc2nc3cccc(C)c3n2C2CCCCN(C(=O)/C=C/CN(C)C)C2)s1 (centres unmarked) [Example 17-64]
22 | 0.004 | 0.002 | 0.271 | < 0.001 | 0.003 | Cc1cccc2nc(NC(=O)c3cc(F)cc(F)c3)n(C3CCCCN(C(=O)/C=C/CN(C)C)C3)c12 (centres unmarked) [Example 17-22]
23 | 0.005 | 0.009 | 0.086 | < 0.001 | 0.009 | Cc1cccc2nc(NC(=O)c3ccnc(N(C)C)c3)n(C3CCCCN(C(=O)/C=C/CN(C)C)C3)c12 (centres unmarked) [Example 17-50]
24 | 0.221 | 0.072 | 5.2 | 0.007 | 0.12 | Cc1cccc2nc(NC(=O)c3cccnn3)n(C3CCCCN(C(=O)/C=C/CN(C)C)C3)c12 (centres unmarked) [Example 17-39]
25 | 0.015 | 0.002 | 1.54 | < 0.001 | < 0.001 | C=CC(=O)N1CCCCC(n2c(NC(=O)c3ccccc3)nc3cccc(C)c32)C1 (centres unmarked) [Example 17-11]
26 | 2.23 | 0.12 | > 10 | 0.012 | 0.171 | Cc1cccc2nc(NC(=O)c3ccnc(C(F)(F)F)c3)n([C@H]3CCCCN(C(=O)/C=C/CN(C)C)C3)c12 (single isomer, unassigned) [Example 21-1]
27 | 0.007 | 0.004 | 0.32 | < 0.001 | 0.005 | Cc1cccc2nc(NC(=O)c3cccc(F)c3)n(C3CCCCN(C(=O)/C=C/CN(C)C)C3)c12 (centres unmarked) [Example 17-21]
28 | 0.019 | 0.005 | 0.75 | < 0.001 | 0.016 | Cc1cccc2nc(NC(=O)c3cccc(Cl)c3F)n(C3CCCCN(C(=O)/C=C/CN(C)C)C3)c12 (centres unmarked) [Example 17-31]
29 | 0.53 | 0.221 | > 10 | 0.038 | 1.05 | Cc1cccc2nc(NC(=O)c3ccccn3)n(C3CCCCN(C(=O)/C=C/CN(C)C)C3)c12 (centres unmarked) [Example 17-34]
30 | 0.015 | 0.003 | 0.39 | < 0.001 | 0.007 | COc1cccc(C(=O)Nc2nc3cccc(C)c3n2C2CCCCN(C(=O)/C=C/CN(C)C)C2)c1 (centres unmarked) [Example 17-44]
31 | 0.02 | 0.019 | 0.37 | 0.006 | 0.105 | Cc1cc(C(=O)Nc2nc3cccc(C)c3n2C2CCCCN(C(=O)/C=C/CN(C)C)C2)oc1C (centres unmarked) [Example 17-59]
